Each block holds one compound with its values, some of them ahead of it.
Assays:
[1] = oral administration; cited from earlier work
[2] = guinea pig, in vivo
[3] = dog, in vivo
[4] = rat, in vivo
substance P = details: rat, in vivo
[5] = system: calcitonin gene-related peptide (CGRP); details: rat, in vivo

Compound: CS(=O)(=O)OCCCCOS(C)(=O)=O [Busulfan, busulfan]
bone marrow depression [1]: severe bone marrow depression

Compound: 2-hydroxypropyl-β-cyclodextrin [CDEX]
acute behavioral signs of agitation (irritation) [2]: no acute behavioral signs of agitation
motor function (placing, stepping and righting reflexes or ambulatory tests) [2]: no changes
urine staining [2]: No evidence of urine staining
bladder function [3]: no effect
heart rate [3]: no effect
skin twitch response [3]: no effect
toxicity [3]: lack of toxicity
EEG activity [4]: no effect
general motor behavior [4]: no effect

tissue level of substance P (substance P): significant reduction
tissue level of CGRP [5]: significant reduction
Compound: C[S+](C)[O-] [dimethyl sulfoxide]
